Patent US11033598B2, “Pharmaceutical composition for preventing or treating hearing loss comprising oat extract as an active ingredient” (priority 2016, dated 2021)

Tests used:
HEI-OC1 cell line = test: DCF-DA assay of ROS generation in gentamicin hearing loss model cells; settings: for ROS generation rate (DCF-DA): Table 2; for protection of hearing loss (DCF-DA test) as compared to gentamicin only: 0.1 μg/ml to 2 μg/ml, 24 hours before gentamicin 4 μM; for protection of hearing loss (DCF-DA test) as compared to gentamicin only / increase rate of the DCF fluorescence intensity: HEI-OC1; for increase rate of the DCF fluorescence intensity: 24 hrs
[1] = system: hearing loss mouse model (noise-induced hearing loss); test: Hearing threshold by auditory brainstem response (ABR) after exposure to noise; format: in vivo; settings: mice; for effect of preserving the hearing threshold (ABR, tone burst): 4 kHz, 8 kHz, 16 kHz TB
Experimental: In order to verify a hearing preservation effect of avenanthramide before exposure to noise, an experiment for measuring a hearing threshold was performed using an auditory brainstem response. A method of measuring the auditory brainstem response (ABR) is a method of evaluating a response to a sound by measuring electric energy when a sound stimulus is transmitted as an electrical signal in the auditory nerve. When the sound reaches the auditory nerve through the outer ear, the middle ear, and the cochlea, the response reflects all states of the outer ear, the middle ear, and the cochlea and reflects the actual sound energy to which the sound energy reaches the brain. The hearing threshold refers to a minimum sensory point of sound that is barely audible, and in a normal mouse, the response is observed even on the small sound having the average of 20 to 30 dB.
Mice to which avenanthramide was administered and untreated control mice were divided into four groups of eight mice, respectively, and evaluated. The noise was exposed with a pure tone of 90 dB of 8 KHz for 6 hours and 10 μg/kg of avenanthramide was intraperitoneally administered to mice before 6 hours and 24 hours of exposure to noise. During the auditory brainstem response test, the stimulus sound was evaluated by lowering the sound gradually from 90 dB by 5 dB with a click sound of a broadband stimulus sound, and the smallest sound of the response was set as the threshold. In addition, the hearing threshold was measured with a stimulus sound of 4 kHz, 8 kHz, 16 kHz, 24 kHz, and 32 kHz tone burst (TB), and in order to verify a hearing preservation effect of avenanthramide, the experiment for measuring the hearing threshold was performed in the same manner as above. The result was illustrated in FIG. 7.
The noise was exposed with a pure tone of 90 dB 8 KHz for 6 hours and 10 μg/kg of avenanthramide was intraperitoneally administered to mice before 6 hours and 24 hours of exposure to noise. Then, the ABR test was performed after two weeks of noise induction in the same manner as Experimental Example 1-1 and the result was illustrated in FIG. 8.
The noise was exposed with a pure tone of 95 dB 8 KHz for 6 hours and 10 μg/kg of avenanthramide was intraperitoneally administered to mice before 6 hours and 24 hours of exposure to noise. Then, the ABR test was performed after two weeks of noise induction in the same manner as Experimental Example 1-1 and the result was illustrated in FIG. 9.

Compound: O=C(/C=C/c1ccc(O)c(O)c1)Nc1ccc(O)cc1C(=O)O [AVN, avenanthramide-C]
- increase rate of DCF fluorescent intensity (HEI-OC1 cell line; AVN 0.5 μM 3 hr + GM 3 μM): 45.85
- increase rate of DCF fluorescent intensity (HEI-OC1 cell line; AVN 0.5 μM 12 hr + GM 3 μM): 45.12
- increase rate of DCF fluorescent intensity (HEI-OC1 cell line; AVN 0.5 μM 24 hr + GM 3 μM): 34.89
- ROS generation rate (DCF-DA) (HEI-OC1 cell line; AVN 1 μM alone): 4.43
- ROS generation rate (DCF-DA) (HEI-OC1 cell line; AVN 1 μM pretreated 24 hrs + GM 3 μM): 13.46
- increase rate of DCF fluorescent intensity (HEI-OC1 cell line; AVN only (0.5 μM), Table 3): 32.27
- increase rate of DCF fluorescent intensity (HEI-OC1 cell line; GM 4 μM + AVN 0.1 μM (24 hrs pretreatment)): 7.62
- increase rate of DCF fluorescent intensity (HEI-OC1 cell line; GM 4 μM + AVN 0.2 μM): 5.4
- increase rate of DCF fluorescent intensity (HEI-OC1 cell line; GM 4 μM + AVN 0.4 μM): 5.43
- increase rate of DCF fluorescent intensity (HEI-OC1 cell line; GM 4 μM + AVN 0.6 μM): 5.36
- increase rate of DCF fluorescent intensity (HEI-OC1 cell line; GM 4 μM + AVN 0.8 μM): 1.31
- increase rate of DCF fluorescent intensity (HEI-OC1 cell line; GM 4 μM + AVN 1.0 μM): 1.62
- increase rate of DCF fluorescent intensity (HEI-OC1 cell line; GM 4 μM + AVN 1.5 μM): 2.06
- increase rate of DCF fluorescent intensity (HEI-OC1 cell line; GM 4 μM + AVN 2.0 μM): 1.26
- increase rate of DCF fluorescent intensity (HEI-OC1 cell line; GM 4 μM + AVN 4.0 μM): 1.1
- increase rate of DCF fluorescent intensity (HEI-OC1 cell line; GM 4 μM + AVN 6.0 μM): 0.81
- ROS generated by gentamicin (HEI-OC1 cell line; as the avenanthramide treatment time increased (3, 12, 24 hr)): decreased
- effect on the damage by gentamicin (HEI-OC1 cell line; avenanthramide 0.1 μM, GM 4 μM): did not affect the damage by gentamicin
- decrease of the amount of ROS as compared to no avenanthramide (HEI-OC1 cell line; avenanthramide 0.2 μM, GM 4 μM): ≥ 50%
- amount of ROS generated by gentamicin (HEI-OC1 cell line; avenanthramide pretreated for 24 hours): decreased
- benefit in reducing the ROS generated by gentamicin (HEI-OC1 cell line; treatment of avenanthramide for 24 hours or more): no particular benefit
- effect of suppressing hearing loss caused by the ROS (HEI-OC1 cell line; treatment time of avenanthramide 24 hours or more): up to the same level as a control
- lowering of hearing threshold (ABR, click) versus exposure to noise without treatment ([1]; 10 μg/kg i.p. 6 and 24 hours before noise 90 dB 8 KHz 6 hours, ABR two weeks after noise, FIG. 8): ≥ 20 dB
- lowering of hearing threshold (ABR, click) versus exposure to noise without treatment ([1]; 10 μg/kg i.p. 6 and 24 hours before noise 95 dB 8 KHz 6 hours, ABR two weeks after noise, FIG. 9): ≥ 40 dB
- hearing threshold (ABR, click) versus control ([1]; 10 μg/kg i.p. before noise 95 dB 8 KHz 6 hours, ABR two weeks after noise, FIG. 9): almost the same threshold value as the control
- hearing threshold (ABR, click) versus exposure to noise without treatment ([1]; 10 μg/kg intraperitoneally 6 hours and 24 hours before noise (90 dB, 8 KHz, 6 hours), FIG. 7): lower threshold
- effect of preserving the hearing threshold (ABR, tone burst) ([1]; 10 μg/kg i.p. before noise 90 dB, FIG. 7): the effect of preserving the hearing threshold was high
- effect of preserving the hearing threshold (ABR, tone burst) ([1]; noise 90 dB, ABR two weeks after noise, FIG. 8): the effect of preserving the hearing threshold was high
- effect of preserving the hearing threshold (ABR, tone burst) ([1]; noise 95 dB, ABR two weeks after noise, FIG. 9): the effect of preserving the hearing threshold was high

Compound: O=C1O[C@H]([C@@H](O)CO)C(O)=C1O [ascorbic acid, reference compound]
- protection of hearing loss (DCF-DA test) as compared to gentamicin only (HEI-OC1 cell line): not verified that when the ascorbic acid was administered, particular protection of hearing loss was shown

Compound: gentamicin [reference compound]
- ROS generation rate (DCF-DA) (HEI-OC1 cell line; GM 3 μM alone): 24.39
- increase rate of DCF fluorescent intensity (HEI-OC1 cell line; GM 3 μM alone, Table 3): 56.06
- increase rate of DCF fluorescent intensity (HEI-OC1 cell line; GM 4 μM only, Table 4): 11.51
- increase rate of the DCF fluorescence intensity (HEI-OC1 cell line; Gentamicin 2 μM): 7.64%
- increase rate of the DCF fluorescence intensity (HEI-OC1 cell line; Gentamicin 3 μM): 12.59%
- increase rate of the DCF fluorescence intensity (HEI-OC1 cell line; Gentamicin 4 μM): 20.35%
- generation amount of the ROS (HEI-OC1 cell line; as the treatment amount of gentamicin was increased (0-4 μM)): increased
- cell death (HEI-OC1 cell line; gentamicin of 10 μM or more): the cells were almost died

Compound: β-glucan [reference compound]
- protection of hearing loss (DCF-DA test) as compared to gentamicin only (HEI-OC1 cell line): not verified that when the β-glucan was administered, particular protection of hearing loss was shown
